The record followed here is the supplement of paper PMC10307832.

Experiment in all cases: relative viability (nuclei count vs DMSO), 5 days (fraction); higher = more cells survive
Compound in the assay “IMD-0354 + Alpelisib”: O=C(Nc1cc(C(F)(F)F)cc(C(F)(F)F)c1)c1cc(Cl)ccc1O [IMD-0354] + Cc1nc(NC(=O)N2CCC[C@H]2C(N)=O)sc1-c1ccnc(C(C)(C)C(F)(F)F)c1 [Alpelisib] (partner 2 µM)
The method in brief:
(§1)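 The day after seeding in 1536-well plates, lung cancer cell lines were treated by pin tool with a single drug, or with a fixed anchor-drug dose together with five library-drug doses (not always all listed) in √10 steps. After 5 days, a combined fix-and-stain solution (final 0.05% Triton X-100, 1% formaldehyde, 1 ug/ml Hoechst) was added. Nuclei counted on 4× images gave relative viability as treated counts over vehicle counts, reported as the median of duplicate plates.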

Compound in the assay “IMD-0354 + Phenformin”: O=C(Nc1cc(C(F)(F)F)cc(C(F)(F)F)c1)c1cc(Cl)ccc1O [IMD-0354] + N=C(N)NC(=N)NCCc1ccccc1 [Phenformin] (partner 250 µM)
The method in brief:
as §1

Compound in the assay “IMD-0354 + Palbociclib”: O=C(Nc1cc(C(F)(F)F)cc(C(F)(F)F)c1)c1cc(Cl)ccc1O [IMD-0354] + CC(=O)c1c(C)c2cnc(Nc3ccc(N4CCNCC4)cn3)nc2n(C2CCCC2)c1=O [Palbociclib] (partner 0.5 µM)
The method in brief: as §1

Compound in the assay “IMD-0354 + Tozasertib”: O=C(Nc1cc(C(F)(F)F)cc(C(F)(F)F)c1)c1cc(Cl)ccc1O [IMD-0354] + Cc1cc(Nc2cc(N3CCN(C)CC3)nc(Sc3ccc(NC(=O)C4CC4)cc3)n2)n[nH]1 [Tozasertib] (partner 0.1 µM)
The method in brief:
as §1

Regarding NCI-H1563, the relative viability with IMD-0354 + Alpelisib (first compound 0.04 µM) is 0.875; with IMD-0354 + Alpelisib (first compound 0.1265 µM), 0.889; in the assay with IMD-0354 + Alpelisib (first compound 0.4 µM), 0.886; with IMD-0354 + Alpelisib (first compound 1.265 µM), 0.726; with IMD-0354 + Alpelisib (first compound 4 µM), 0.399; in the assay with IMD-0354 + Phenformin (first compound 0.04 µM) it was 0.688. For the same cell line, the relative viability turned out to be 0.622 in the assay with IMD-0354 + Phenformin (first compound 0.1265 µM), 0.53 with IMD-0354 + Phenformin (first compound 0.4 µM), 0.329 in the assay with IMD-0354 + Phenformin (first compound 1.265 µM) and 0.37 with IMD-0354 + Phenformin (first compound 4 µM).

Take NCI-H1648: the relative viability with IMD-0354 + Palbociclib (first compound 0.04 µM) turned out to be 0.278; with IMD-0354 + Palbociclib (first compound 0.1265 µM), 0.227; with IMD-0354 + Palbociclib (first compound 0.4 µM) it was 0.224; with IMD-0354 + Palbociclib (first compound 1.265 µM), 0.21; in the assay with IMD-0354 + Palbociclib (first compound 4 µM), 0.259; in the assay with IMD-0354 + Tozasertib (first compound 0.1265 µM) it was 0.454. The results for the relative viability with IMD-0354 + Tozasertib (first compound 0.4 µM), in the assay with IMD-0354 + Tozasertib (first compound 1.265 µM) and with IMD-0354 + Tozasertib (first compound 4 µM) were 0.498, 0.424 and 0.269, respectively.

Turning to NCI-H1650, the relative viability came to 0.192 with IMD-0354 + Palbociclib (first compound 0.04 µM); 0.389 with IMD-0354 + Palbociclib (first compound 0.1265 µM); 0.311 in the assay with IMD-0354 + Palbociclib (first compound 0.4 µM); 0.127 with IMD-0354 + Palbociclib (first compound 1.265 µM); 0.181 in the assay with IMD-0354 + Palbociclib (first compound 4 µM); 0.47 with IMD-0354 + Tozasertib (first compound 0.04 µM). In addition, the relative viability in the assay with IMD-0354 + Tozasertib (first compound 0.1265 µM) amounted to 0.362; with IMD-0354 + Tozasertib (first compound 0.4 µM) it was 0.253; with IMD-0354 + Tozasertib (first compound 1.265 µM), 0.259; with IMD-0354 + Tozasertib (first compound 4 µM), 0.19; in the assay with IMD-0354 + Phenformin (first compound 0.04 µM), 0.46; in the assay with IMD-0354 + Phenformin (first compound 0.1265 µM), 0.396. Also, the results for the relative viability in the assay with IMD-0354 + Phenformin (first compound 0.4 µM), with IMD-0354 + Phenformin (first compound 1.265 µM) and in the assay with IMD-0354 + Phenformin (first compound 4 µM) were 0.304, 0.174 and 0.209, respectively.

In the case of NCI-H1703, the relative viability with IMD-0354 + Alpelisib (first compound 0.04 µM) came to 0.312; with IMD-0354 + Alpelisib (first compound 0.1265 µM), 0.269; in the assay with IMD-0354 + Alpelisib (first compound 0.4 µM), 0.282; in the assay with IMD-0354 + Alpelisib (first compound 1.265 µM), 0.179; with IMD-0354 + Alpelisib (first compound 4 µM), 0.121.

Regarding NCI-H1792, the relative viability with IMD-0354 + Palbociclib (first compound 0.04 µM) was 0.69; with IMD-0354 + Palbociclib (first compound 0.1265 µM), 0.61; with IMD-0354 + Palbociclib (first compound 0.4 µM), 0.258; with IMD-0354 + Palbociclib (first compound 1.265 µM), 0.579; in the assay with IMD-0354 + Palbociclib (first compound 4 µM) it was 0.431; with IMD-0354 + Alpelisib (first compound 0.04 µM), 0.822. For the same cell line, the relative viability was 0.506 with IMD-0354 + Alpelisib (first compound 0.1265 µM); 0.874 with IMD-0354 + Alpelisib (first compound 0.4 µM); 0.677 with IMD-0354 + Alpelisib (first compound 1.265 µM); 0.336 with IMD-0354 + Alpelisib (first compound 4 µM); 0.175 with IMD-0354 + Phenformin (first compound 0.04 µM); 0.225 with IMD-0354 + Phenformin (first compound 0.1265 µM). The relative viability with IMD-0354 + Phenformin (first compound 0.4 µM) is 0.226; with IMD-0354 + Phenformin (first compound 1.265 µM), 0.167; with IMD-0354 + Phenformin (first compound 4 µM), 0.139.

NCI-H2342: the relative viability in the assay with IMD-0354 + Palbociclib (first compound 0.04 µM) is 0.491; with IMD-0354 + Palbociclib (first compound 0.1265 µM), 0.511; with IMD-0354 + Palbociclib (first compound 0.4 µM), 0.499; in the assay with IMD-0354 + Palbociclib (first compound 1.265 µM), 0.538; with IMD-0354 + Palbociclib (first compound 4 µM) it was 0.438; with IMD-0354 + Tozasertib (first compound 0.04 µM) it was 0.497. Moreover, the relative viability with IMD-0354 + Tozasertib (first compound 0.1265 µM) was found to be 0.534; with IMD-0354 + Tozasertib (first compound 0.4 µM), 0.471; with IMD-0354 + Tozasertib (first compound 1.265 µM), 0.401; with IMD-0354 + Tozasertib (first compound 4 µM), 0.377; with IMD-0354 + Phenformin (first compound 0.04 µM) it was 0.632; with IMD-0354 + Phenformin (first compound 0.1265 µM), 0.593. In addition, the relative viability in the assay with IMD-0354 + Phenformin (first compound 0.4 µM) worked out at 0.455; with IMD-0354 + Phenformin (first compound 1.265 µM) it was 0.4; with IMD-0354 + Phenformin (first compound 4 µM), 0.383.

Consider SW 900, for which the relative viability came out at 0.517 with IMD-0354 + Palbociclib (first compound 0.04 µM); 0.629 with IMD-0354 + Palbociclib (first compound 0.1265 µM); 0.478 in the assay with IMD-0354 + Palbociclib (first compound 0.4 µM); 0.187 in the assay with IMD-0354 + Palbociclib (first compound 1.265 µM); 0.248 with IMD-0354 + Palbociclib (first compound 4 µM); 0.635 in the assay with IMD-0354 + Tozasertib (first compound 0.04 µM). Besides, the relative viability is 0.531 with IMD-0354 + Tozasertib (first compound 0.1265 µM); 0.409 in the assay with IMD-0354 + Tozasertib (first compound 0.4 µM); 0.273 with IMD-0354 + Tozasertib (first compound 1.265 µM); 0.225 in the assay with IMD-0354 + Tozasertib (first compound 4 µM); 0.661 with IMD-0354 + Phenformin (first compound 0.04 µM); 0.48 in the assay with IMD-0354 + Phenformin (first compound 0.1265 µM). Also, the relative viability in the assay with IMD-0354 + Phenformin (first compound 0.4 µM) worked out at 0.302; in the assay with IMD-0354 + Phenformin (first compound 1.265 µM) it was 0.185; with IMD-0354 + Phenformin (first compound 4 µM), 0.202.
